Columns and labels:
Format in all cases: in vivo
Echinochloa crus-galli = test: Post-emergence herbicidal activity against ECHCG; settings: Echinochloa crus-galli, 504 h, dosage 320 g/ha, rated about 3 weeks after treatment
Procedure, shortened: (§1)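 Greenhouse pot plants sprayed post-emergence at one-leaf stage (2-3 weeks after sowing) with WP or EC formulations, 0.5% additive, 600 l/ha water. Visual rating about 3 weeks later versus untreated controls: 100% = plants dead, 0% = like control.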

Avena fatua = test: Pre-emergence herbicidal activity against AVEFA; settings: Avena fatua, 504 h, dosage 80 g/ha, read-out: Pre-emergence herbicidal activity against AVEVA in % (AVEFA)
Description: (§2) 1. Pre-Emergence Herbicidal Action and Crop Plant Compatibility Seeds of monocotyledonous and dicotyledonous weed plants and crop plants are placed in plastic or wood fiber pots and covered with soil. The compounds of the invention, formulated in the form of wettable powders (WP) or as emulsion concentrates (EC), are then applied onto the surface of the covering soil as aqueous suspension or emulsion with addition of 0.5% additive at a water application rate of 600 l/ha (converted). After the treatment, the pots are placed in a greenhouse and kept under good growth conditions for the trial plants. After about 3 weeks, the effect of the preparations is scored visually in comparison with untreated controls as percentages. For example, 100% activity=the plants have died, 0% activity=like control plants. AMARE: Amaranthus retroflexus AVEFA: Avena fatua

Alopecurus myosuroides = test: Post-emergence herbicidal activity against ALOMY; settings: Alopecurus myosuroides, 504 h, dosage 320 g/ha, rated about 3 weeks after treatment
Procedure, shortened: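 Greenhouse-grown plants treated at one-leaf stage, 2 to 3 weeks after sowing, with WP or EC formulations sprayed as aqueous suspension/emulsion plus 0.5% additive at 600 l/ha. Activity rated visually about 3 weeks later versus untreated controls (100% = plants dead, 0% = like control).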

Amaranthus retroflexus = test: Pre-emergence herbicidal activity against AMARE; settings: Amaranthus retroflexus, 504 h, dosage 80 g/ha
Description: as §2

Viola tricolor = test: Post-emergence herbicidal activity against VIOTR; settings: Viola tricolor, 504 h, dosage 320 g/ha, rated about 3 weeks after treatment
Procedure, shortened: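 Greenhouse plants in sandy loam treated at one-leaf stage, 2 to 3 weeks after sowing, by spraying WP or EC formulations with 0.5% additive at 600 l/ha water. Activity rated visually after about 3 weeks versus untreated controls, 100% = plants dead, 0% = like control.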

Hordeum murinum = test: Post-emergence herbicidal activity against HORMU; settings: Hordeum murinum, 504 h, dosage 320 g/ha
Procedure, shortened: as §1

Lolium rigidum = test: Post-emergence herbicidal activity against LOLRI; settings: Lolium rigidum, 504 h, dosage 320 g/ha, rated about 3 weeks after treatment
Procedure, shortened: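 Greenhouse-grown plants sprayed post-emergence at the one-leaf stage, 2 to 3 weeks after sowing, with WP or EC formulations plus 0.5% additive at 600 l/ha water. Activity rated visually after about 3 weeks versus untreated controls (100% = plants dead, 0% = like control).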

| SMILES | pest or weed control at 320 g/ha (Echinochloa crus-galli) | pest or weed control at 80 g/ha (Avena fatua) | pest or weed control at 320 g/ha (Alopecurus myosuroides) | pest or weed control at 80 g/ha (Amaranthus retroflexus) | pest or weed control at 320 g/ha (Viola tricolor) | pest or weed control at 320 g/ha (Hordeum murinum) | pest or weed control at 320 g/ha (Lolium rigidum) |
| --- | --- | --- | --- | --- | --- | --- | --- |
| COC(=O)[C@H]1C[C@@H](NC(=O)[C@@]2(C)CC(c3cc(F)cc(F)c3)=NO2)CO1 (mixture of isomers) [I-09, methyl cis-4-[[(5R)-3-(3,5-difluorophenyl)-5-methyl-4H-isoxazole-5-carbonyl]amino]tetrahydrofuran-2-carboxylate] | 80% | 90% | 90% | 80% | 80% | – | – |
| COC(=O)[C@H]1C[C@H](NC(=O)[C@@]2(C)CC(c3cc(F)cc(F)c3)=NO2)CO1 (mixture of isomers) [I-55, methyl trans-4-[[(5R)-3-(3,5-difluorophenyl)-5-methyl-4H-isoxazole-5-carbonyl]amino]tetrahydrofuran-2-carboxylate] | 90% | – | 90% | – | 90% | 100% | 90% |
| C=C[C@]1(C(=O)N[C@@H]2CO[C@@H](C(=O)OC)C2)CC(c2cc(F)cc(F)c2)=NO1 (mixture of isomers) [I-56, methyl trans-4-[[(5S)-3-(3,5-difluorophenyl)-5-vinyl-4H-isoxazole-5-carbonyl]amino]tetrahydrofuran-2-carboxylate] | 90% | – | 90% | – | 90% | 90% | 90% |
| CCOC(=O)[C@H]1C[C@@H](NC(=O)C2(C)CC(c3cccc(F)c3)=NO2)CO1 (mixture of isomers) [I-30, ethyl cis-4-[[(5RS)-3-(3-fluorophenyl)-5-methyl-4H-isoxazole-5-carbonyl]amino]tetrahydrofuran-2-carboxylate] | 80% | 80% | 100% | 80% | – | 100% | 100% |
| CC(C)OC(=O)[C@H]1C[C@@H](NC(=O)C2(C)CC(c3cccc(F)c3)=NO2)CO1 (mixture of isomers) [I-32, isopropyl cis-4-[[(5RS)-3-(3-fluorophenyl)-5-methyl-4H-isoxazole-5-carbonyl]amino]tetrahydrofuran-2-carboxylate] | 90% | – | 90% | 90% | – | 90% | 100% |
| CC(C)(C)OC(=O)[C@H]1C[C@@H](NC(=O)C2(C)CC(c3cccc(F)c3)=NO2)CO1 (mixture of isomers) [I-33, tert-butyl cis-4-[[(5RS)-3-(3-fluorophenyl)-5-methyl-4H-isoxazole-5-carbonyl]amino]tetrahydrofuran-2-carboxylate] | 80% | – | 100% | – | – | 90% | 100% |
| CC1(C(=O)N[C@H]2CO[C@@H](C(=O)OCc3ccccc3)C2)CC(c2cccc(F)c2)=NO1 (mixture of isomers) [I-34, benzyl cis-4-[[(5RS)-3-(3-fluorophenyl)-5-methyl-4H-isoxazole-5-carbonyl]amino]tetrahydrofuran-2-carboxylate] | 90% | 80% | 100% | – | – | 100% | 90% |
| COC(=O)[C@H]1C[C@@H](NC(=O)C2(C)CC(c3cc(F)cc(F)c3)=NO2)CO1 (relative stereo) [I-01, methyl cis-4-[[3-(3,5-difluorophenyl)-5-methyl-4H-isoxazole-5-carbonyl]amino]tetrahydrofuran-2-carboxylate] | 90% | 90% | 100% | – | 90% | – | – |
| C=CC1(C(=O)N[C@H]2CO[C@@H](C(=O)OC)C2)CC(c2cc(Cl)cc(Cl)c2)=NO1 (relative stereo) [I-03, methyl cis-4-[[3-(3,5-dichlorophenyl)-5-vinyl-4H-isoxazole-5-carbonyl]amino]tetrahydrofuran-2-carboxylate] | 80% | – | 90% | 80% | – | – | – |
| COC(=O)[C@H]1C[C@@H](NC(=O)C2(C)CC(c3cc(C)cc(Br)c3)=NO2)CO1 (relative stereo) [I-04, methyl cis-4-[[3-(3-bromo-5-methylphenyl)-5-methyl-4H-isoxazole-5-carbonyl]amino]tetrahydrofuran-2-carboxylate] | 90% | – | 90% | – | 80% | – | – |
| COC(=O)[C@H]1C[C@@H](NC(=O)C2(OC)CC(c3cc(F)cc(F)c3)=NO2)CO1 (relative stereo) [I-05, methyl cis-4-[[3-(3,5-difluorophenyl)-5-methoxy-4H-isoxazole-5-carbonyl]amino]tetrahydrofuran-2-carboxylate] | 90% | – | 90% | – | – | – | – |
| C=CC1(C(=O)N[C@H]2CO[C@@H](C(=O)OC)C2)CC(c2cccc(F)c2)=NO1 (relative stereo) [I-07, methyl cis-4-[[3-(3-fluorophenyl)-5-vinyl-4H-isoxazole-5-carbonyl]amino]tetrahydrofuran-2-carboxylate] | 80% | – | 90% | 90% | – | – | – |
| COC(=O)[C@H]1C[C@@H](NC(=O)C2(OC)CC(c3cc(C)cc(Br)c3)=NO2)CO1 (relative stereo) [I-08, methyl cis-4-[[3-(3-bromo-5-methylphenyl)-5-methoxy-4H-isoxazole-5-carbonyl]amino]tetrahydrofuran-2-carboxylate] | 90% | – | – | – | 80% | – | – |
| COC(=O)[C@H]1C[C@@H](NC(=O)C2(OC)CC(c3ccccc3)=NO2)CO1 (relative stereo) [I-14, methyl cis-4-[(5-methoxy-3-phenyl-4H-isoxazole-5-carbonyl)amino]tetrahydrofuran-2-carboxylate] | 80% | – | 100% | – | – | – | – |
| COC(=O)C1COCC1NC(=O)C1(C)CC(c2cc(F)cc(F)c2)=NO1 (centres unmarked) [I-19, methyl 4-[[3-(3,5-difluorophenyl)-5-methyl-4H-isoxazole-5-carbonyl]amino]tetrahydrofuran-3-carboxylate] | 90% | 80% | 90% | – | 80% | – | – |
| COC(=O)C1COCC1NC(=O)C1(OC)CC(c2cc(F)cc(F)c2)=NO1 (centres unmarked) [I-27, methyl 4-[[3-(3,5-difluorophenyl)-5-methoxy-4H-isoxazole-5-carbonyl]amino]tetrahydrofuran-3-carboxylate] | – | 90% | 90% | 90% | 80% | – | – |
| COC(=O)C1COCC1NC(=O)C1(OC)CC(c2cc(Cl)cc(Cl)c2)=NO1 (centres unmarked) [I-29, methyl 4-[[3-(3,5-dichlorophenyl)-5-methoxy-4H-isoxazole-5-carbonyl]amino]tetrahydrofuran-3-carboxylate] | 90% | 80% | 90% | 90% | 80% | – | – |
| COC(=O)C1=C[C@H](NC(=O)C2(C)CC(c3cccc(F)c3)=NO2)CO1 (stereo partly drawn) [I-39, methyl (3S)-3-[[3-(3-fluorophenyl)-5-methyl-4H-isoxazole-5-carbonyl]amino]-2,3-dihydrofuran-5-carboxylate] | 100% | – | 100% | – | 80% | 100% | 100% |
| COC(=O)[C@@]1(OC)C[C@@H](NC(=O)C2(C)CC(c3cccc(F)c3)=NO2)CO1 (stereo partly drawn) [I-47, methyl (2R,4R)-4-[[3-(3-fluorophenyl)-5-methyl-4H-isoxazole-5-carbonyl]amino]-2-methoxytetrahydrofuran-2-carboxylate] | 100% | – | 100% | – | 80% | 100% | 100% |

Source: patent publication US11597724B2, “Herbicidally active 3-phenylisoxazoline-5-carboxamides of tetrahydro and dihydrofuran carboxylic acids and esters” (Bayer Aktiengesellschaft, priority 2017, dated 2023)
